From the NIST ThermoML archive (doi:10.1016/j.jct.2005.07.016)
Numbers after ± are expanded uncertainties.

Legend:
[1] = Liquid
[2] = refractive index (Na D-line) (dimensionless); conditions: 298.15 K; 101.33 kPa; Liquid; Standard Abbe refractometry

| Structure (SMILES) | vapor or sublimation pressure ([1]; 298.15 K) [kPa] | vapor or sublimation pressure ([1]; 303.15 K) [kPa] | vapor or sublimation pressure ([1]; 308.15 K) [kPa] | vapor or sublimation pressure ([1]; 313.15 K) [kPa] | refractive index [2] | vapor or sublimation pressure ([1]; 292.85 K) [kPa] | vapor or sublimation pressure ([1]; 295.55 K) [kPa] | vapor or sublimation pressure ([1]; 302.35 K) [kPa] | vapor or sublimation pressure ([1]; 306.25 K) [kPa] | vapor or sublimation pressure ([1]; 309.95 K) [kPa] | vapor or sublimation pressure ([1]; 313.65 K) [kPa] | vapor or sublimation pressure ([1]; 291.95 K) [kPa] | vapor or sublimation pressure ([1]; 295.15 K) [kPa] | vapor or sublimation pressure ([1]; 299.35 K) [kPa] | vapor or sublimation pressure ([1]; 307.05 K) [kPa] | vapor or sublimation pressure ([1]; 310.45 K) [kPa] | vapor or sublimation pressure ([1]; 316.75 K) [kPa] |
| --- | --- | --- | --- | --- | --- | --- | --- | --- | --- | --- | --- | --- | --- | --- | --- | --- | --- |
| CC(Cl)(Cl)Cl [1,1,1-trichloroethane] | 16.69 ± 0.35 | 20.34 ± 0.41 | 25.22 ± 0.49 | 30.78 ± 0.57 | 1.4354 ± 0.0007 | – | – | – | – | – | – | – | – | – | – | – | – |
| ClCCCl [1,2-dichloroethane] | 10.47 ± 0.25 | 13.34 ± 0.91 | 16.77 ± 1.1 | 20.88 ± 1.3 | 1.4421 ± 0.0007 | 8.09 ± 0.21 | 9.23 ± 0.23 | 12.81 ± 0.29 | 15.46 ± 0.33 | 18.17 ± 0.37 | 21.29 ± 0.42 | – | – | – | – | – | – |
| O=C1CCCC1 [cyclopentanone] | 1.61 ± 0.33 | 2.03 ± 0.11 | 2.68 ± 0.38 | 3.41 ± 0.13 | 1.4347 ± 0.0007 | – | – | – | – | – | – | 1.16 ± 0.1 | 1.5 ± 0.1 | 1.65 ± 0.11 | 2.6 ± 0.12 | 3 ± 0.13 | 4.03 ± 0.14 |
